This is an account of results in patent US9937154B2, “Use of telmisartan to prevent and treat graft versus host disease and other alloimmune and autoimmune diseases” (Hackensack University Medical Center, priority 2015, dated 2018).

Entries after “also recorded” stand apart in the source; their conditions may differ. Where a name gives a salt, the structure may show the parent alone. Read-outs that look alike come from different tables or passages of the source.

The target in data set [1] is T1, ROCK II (Homo sapiens, UniProt O75116). To be noted: cited from earlier work.
T1 sequence (O75116 whole entry): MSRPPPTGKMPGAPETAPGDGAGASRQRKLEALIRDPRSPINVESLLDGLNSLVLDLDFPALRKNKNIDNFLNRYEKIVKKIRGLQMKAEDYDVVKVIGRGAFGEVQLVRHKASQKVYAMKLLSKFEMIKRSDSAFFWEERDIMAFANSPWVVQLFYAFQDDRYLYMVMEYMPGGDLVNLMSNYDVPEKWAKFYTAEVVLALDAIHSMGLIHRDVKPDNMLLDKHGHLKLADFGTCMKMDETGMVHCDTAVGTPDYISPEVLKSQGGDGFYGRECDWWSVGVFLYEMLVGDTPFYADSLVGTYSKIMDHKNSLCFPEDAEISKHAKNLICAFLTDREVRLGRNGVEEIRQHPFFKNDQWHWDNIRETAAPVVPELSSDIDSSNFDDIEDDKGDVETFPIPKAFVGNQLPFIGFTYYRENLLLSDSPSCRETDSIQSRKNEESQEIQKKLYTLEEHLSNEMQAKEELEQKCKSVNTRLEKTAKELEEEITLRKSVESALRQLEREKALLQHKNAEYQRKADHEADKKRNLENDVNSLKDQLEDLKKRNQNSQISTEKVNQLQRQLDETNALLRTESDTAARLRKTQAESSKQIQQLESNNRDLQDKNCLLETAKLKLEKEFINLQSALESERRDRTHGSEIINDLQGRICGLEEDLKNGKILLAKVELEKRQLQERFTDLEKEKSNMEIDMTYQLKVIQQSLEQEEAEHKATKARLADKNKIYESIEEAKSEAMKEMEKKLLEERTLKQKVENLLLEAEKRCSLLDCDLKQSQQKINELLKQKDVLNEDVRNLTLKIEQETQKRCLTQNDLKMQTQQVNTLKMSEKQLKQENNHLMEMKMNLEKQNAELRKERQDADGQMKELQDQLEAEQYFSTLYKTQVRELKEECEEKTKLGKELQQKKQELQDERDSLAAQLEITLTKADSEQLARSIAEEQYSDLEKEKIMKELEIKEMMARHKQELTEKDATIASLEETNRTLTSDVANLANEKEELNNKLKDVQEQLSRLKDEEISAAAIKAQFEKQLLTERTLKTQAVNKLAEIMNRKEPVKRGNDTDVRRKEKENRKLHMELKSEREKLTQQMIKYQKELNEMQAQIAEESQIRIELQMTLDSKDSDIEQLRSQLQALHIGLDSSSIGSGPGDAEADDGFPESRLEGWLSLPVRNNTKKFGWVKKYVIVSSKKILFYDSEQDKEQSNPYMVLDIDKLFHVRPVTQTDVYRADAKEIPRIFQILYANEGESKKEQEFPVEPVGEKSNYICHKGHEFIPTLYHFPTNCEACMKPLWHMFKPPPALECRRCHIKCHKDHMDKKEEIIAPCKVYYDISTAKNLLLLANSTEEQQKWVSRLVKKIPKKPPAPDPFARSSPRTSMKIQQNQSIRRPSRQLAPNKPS
The target of a further data set is human ROCK I (Homo sapiens, UniProt Q13464). The settings on record: cited from earlier work.
human ROCK I, sequence (Q13464 whole entry): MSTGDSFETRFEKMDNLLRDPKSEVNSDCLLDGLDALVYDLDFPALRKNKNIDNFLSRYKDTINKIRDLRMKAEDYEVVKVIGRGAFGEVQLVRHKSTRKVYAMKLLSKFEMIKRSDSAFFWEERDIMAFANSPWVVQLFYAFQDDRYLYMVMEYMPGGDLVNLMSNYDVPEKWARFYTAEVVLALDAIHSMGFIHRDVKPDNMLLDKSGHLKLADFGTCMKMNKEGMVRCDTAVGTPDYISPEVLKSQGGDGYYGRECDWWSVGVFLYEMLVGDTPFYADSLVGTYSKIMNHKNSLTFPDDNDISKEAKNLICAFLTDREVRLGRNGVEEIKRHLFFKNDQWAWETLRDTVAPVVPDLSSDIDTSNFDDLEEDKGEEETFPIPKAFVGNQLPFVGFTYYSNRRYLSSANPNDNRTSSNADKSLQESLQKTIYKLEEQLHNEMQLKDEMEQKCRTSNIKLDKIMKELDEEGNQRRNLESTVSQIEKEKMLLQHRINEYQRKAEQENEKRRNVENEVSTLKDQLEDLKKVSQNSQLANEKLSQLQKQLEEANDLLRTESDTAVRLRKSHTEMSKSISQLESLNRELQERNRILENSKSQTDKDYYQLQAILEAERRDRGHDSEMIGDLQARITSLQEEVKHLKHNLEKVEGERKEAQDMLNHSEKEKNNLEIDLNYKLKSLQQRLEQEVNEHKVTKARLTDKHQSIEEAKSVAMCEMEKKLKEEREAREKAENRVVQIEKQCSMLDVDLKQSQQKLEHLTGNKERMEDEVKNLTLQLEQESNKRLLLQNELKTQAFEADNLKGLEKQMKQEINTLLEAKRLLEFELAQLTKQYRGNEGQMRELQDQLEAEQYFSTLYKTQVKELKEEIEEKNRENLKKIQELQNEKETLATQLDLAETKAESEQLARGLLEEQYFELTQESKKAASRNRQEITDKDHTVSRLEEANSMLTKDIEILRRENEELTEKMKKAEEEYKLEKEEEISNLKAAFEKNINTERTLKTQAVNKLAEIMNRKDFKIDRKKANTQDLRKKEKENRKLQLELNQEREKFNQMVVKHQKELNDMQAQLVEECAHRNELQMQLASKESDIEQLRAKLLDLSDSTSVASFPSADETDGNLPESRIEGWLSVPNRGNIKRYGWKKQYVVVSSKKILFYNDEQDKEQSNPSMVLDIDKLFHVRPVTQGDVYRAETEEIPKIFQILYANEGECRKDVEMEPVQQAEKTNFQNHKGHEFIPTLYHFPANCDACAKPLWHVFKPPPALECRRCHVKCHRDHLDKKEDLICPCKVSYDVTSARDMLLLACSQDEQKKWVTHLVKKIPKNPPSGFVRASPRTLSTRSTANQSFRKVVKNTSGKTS
Data set [2] has as its system rat models of inflammatory and noninflammatory arthritic pain. To be noted: cited from earlier work.
For another data set, the system named is SAH patients. To be noted: over 1400 SAH patients; cited from earlier work.
The subject of data set [3] is C3B6 mice (GVHD model). In words: GVHD-associated weight loss and diarrhea in C3B6 mice. It counts as in vivo, mouse. The protocol:
It is well known that weight loss occurs in patients with GVHD. Jacobsohn D A, et al., Bone Marrow […]. 29(3): 231-236 (2002). […] C3B6 mice were treated according to Example 1. […] Despite the similar initial weight losses of Fasudil® treated and untreated T cell recipients, the two groups had different rates of diarrhea. […] Diarrhea resolved by the fourth week among survivors in both groups.

Data set [4] has as its system responding splenocytes from C3B6 hosts. The experiment in a line: mouse IFN-γ ELISPOT after one-way mixed lymphocyte reaction of host splenocytes. The format is cell-based. The protocol:
Classically, a MLR is carried out by co-incubating lymphocytes from two strains that differ in histocompatibility genes for several days, and the proliferative response of T cells of one lymphocyte population to histocompatibility antigens of the other then measured.
Secretion of IFN-γ by responder cells in a MLR was used as an indicator of cytotoxic T lymphocyte function (i.e., alloreactivity). Briefly, spleens from C3B6 mice treated according to Example 1 were harvested at day 10 (C3H donor T cells migrating to the spleen with few de novo generated T cells emigrating from the host thymus) or at day 84 (spleens containing newly generated T cells maturing within the host thymus; i.e., allotolerant of host B6 parental antigens) post-transplant for use as responders. Spleens from C3H, C3B6 and DBA mice (Jackson Laboratory) were harvested for use as stimulators. Spleens were homogenized and the cells were washed twice with Phosphate Buffered Saline (PBS) (Sigma Aldrich, St. Louis, Mo., Catalog No. P5493, or equivalent). Red blood cells were separated from lymphocytes using Ficoll®. Briefly, cells were transferred to 50 mL conical tubes containing 15 mL of Ficoll®-Paque PLUS (GE Healthcare, Waukesha, Wis., Catalog No. 17-1440-03) and centrifuged at 800 rcf (1,900-2,000 rpm) for 20 minutes with centrifuge break off. After centrifugation, the buffy coat layer (containing lymphocytes) was removed and transferred to a new 50 mL conical tube. Phosphate-buffered saline (PBS) without calcium and magnesium (Gibco, Life Technologies, Carlsbad, Calif., Catalog No. 10010-023 or equivalent) was added to the buffy coat layer so that the total volume in the conical tube is equal to 50 mL. The buffy coat layer in PBS was centrifuged at 250 rcf (1,200 rpm) for 10 minutes with centrifuge brake applied. After centrifugation, the PBS was aspirated and the lymphocyte pellet was resuspended in 48 mL of PBS. Lymphocytes resuspended in PBS were centrifuged at 250 rcf (1,200 rpm) for 10 minutes with centrifuge break applied. PBS was aspirated and PBMC pellet resuspended in 12.5% Bovine Serum Albumin (BSA) (Sigma-Aldrich, St. Louis, Mo., Catalog No. A9418-5G or equivalent) in RPMI medium (Sigma-Aldrich, St. Louis, Mo., Catalog No. R7388 or equivalent). Stimulator lymphocytes (from C3H, C3B6 and DBA mouse spleens) were irradiated for 2.5 minutes (2,000 RAD) in a cesium irradiator.
One-way MLRs were performed by mixing 1×10^5 lymphocytes from both stimulator and responder cells in a 96-well ELISPOT (eBioscience, San Diego, Calif., Catalog No. 88-7384, or equivalent) capture plate coated with anti-mouse IFN-γ antibody according to manufacturer's protocol. […]

Data set [5] deals with C3B6 mice (GVHD model). In words: GVHD-associated skin inflammation in C3B6 mice. The format is in vivo, mouse. The settings on record: ATBM+T cells+Fasudil recipient mice. The procedure: Skin is most commonly affected and usually the first organ involved in GVHD. Ferrara J L M, et al., Lancet. 373(9674): 1550-1561 (2009). In this study, C3B6 mice were used to determine the effect of ROCK inhibitors on GVHD-associated skin inflammation.
C3B6 mice were treated according to Example 1. […] . Skin inflammation in C3B6 treated mice occurred in the fourth week and gradually waned over a two week-period.

The next data set concerns small intestinal crypts. The experiment in a line: small intestine tissue sections of 90 day survivor mice. It counts as in vivo, mouse. To be noted: FIG. 7. The source says: (B) Limited inflammation within dashed lines of basal layer and lamina propria, with intact crypts, in 90 day survivor Fasudil® treated mice.
Data set [6] concerns CFSE labeled splenic lymphocytes from C3B6 hosts. The experiment in a line: CFSE labeling with flow-based assessment of splenic lymphocyte division in one-way MLR. To be noted: day 98 survivor mice. It counts as cell-based, mouse. The procedure:
Carboxyfluorescein […] succinimidyl ester (CFSE) labeling (Molecular Probes, Carlsbad, Calif., Catalog No. C34554, or equivalent) with flow cytometry detection was employed to assess lymphocyte cell division in response to alloantigen recognition. Briefly, lymphocytes from responders and stimulators were harvested as described above. For this experiment, sources of stimulator cells included C3H, C3B6 and Balb/c mice. Next, lymphocytes from responders were incubated in CFSE prepared according to manufacturer's protocol at 37° C. for 10 minutes. The staining was quenched by the addition of 5 volumes of ice-cold culture media (12.5% Bovine Serum Albumin (BSA) in RPMI) to the lymphocytes. Lymphocytes were incubated on ice for 5 minutes before pelleting by centrifugation. After centrifugation, the lymphocytes were washed by resuspending and pelleting 3 times in fresh culture media. One-way MLRs were performed by mixing 1×10^5 lymphocytes from both stimulator and CFSE responder cells in a 96-well tissue culture plate (Corning Costar, Tewksbury, Mass., Catalog No. CLS3585 or equivalent). […] After 5 days of incubation, the cells were harvested and analyzed using a flow cytometer with 488 nm excitation and emission filters appropriate for fluorescein. […]

The subject of data set [7] is animal models of subarachnoid hemorrhage (SAH). To be noted: cited from earlier work.
Data set [8] deals with C3B6 mice (GVHD model). The experiment in a line: GVHD survival in irradiated C3B6 F1 mice given ATBM and donor T cells. To be noted: ATBM + T cells + Fasudil i.p. and p.o., n = 26.
The next data set concerns preconstricted rat aorta. To be noted: cited from earlier work.
The subject of data set [9] is rat model of hypertension. To be noted: cited from earlier work.
The target of data set [10] is T1, ROCK II. To be noted: cited from earlier work. The source holds these as a separate data set.
For the next data set, the system named is neutrophil migration. The settings on record: cited from earlier work.
For data set [11] the following is noted: in vivo; cited from earlier work.
In the next data set the test system is ROCK. To be noted: cited from earlier work.
In data set [12] the test system is transplant patients (IT GVHD). The settings on record: cited from earlier work.

One may read the IC50 as the concentration that gives 50% inhibition. For the molecule `O=C(Nc1ccc(-c2ccncc2)cc1)N[C@H](CO)c1ccccc1` [AS 1892802], the figures for the IC50 on ROCK II [1] and at human ROCK I were 0.052 µM and 0.122 µM, respectively. The analgesic effects result in data set [2] is listed as “exhibits analgesic effects”.

As to `O=S(=O)(c1cccc2cnccc12)N1CCCNCC1` [Fasudil®, Fasudil], the tolerability and safety result in the data set with SAH patients is “well tolerated and safe”. Moreover, in the data set on C3B6 mice (GVHD model) [3] (between second and third weeks post-transplant), the “mice developing clinically observable diarrhea” value is listed as “less than 20%”. The same molecule came in with a weight loss in the data set with C3B6 mice (GVHD model) [3] (first three weeks post-transplant, roughly the same as ATBM+T cells mice) of roughly 25 % total body weight. For the same molecule, the subsequent weight recovery entry with C3B6 mice (GVHD model) [3] (most experiments, data not shown) was “recovered more weight than ATBM+T cells recipient mice”. Also, the “Day 10 IFN-γ secreting spleen cell frequencies” value in data set [4] (Concanavalin A positive control) was 120.0 per 100,000 cells; in data set [4] (irradiated stimulators C3B6F1 (host), 4 day one-way MLR), 115.6 per 100,000 cells; in data set [4] (irradiated stimulators C3H (self), 4 day one-way MLR), 2.3 per 100,000 cells; in data set [4] (irradiated stimulators DBA (third party), 4 day one-way MLR) it was 18 per 100,000 cells. Also, in the data set with C3B6 mice (GVHD model) [5], the skin inflammation result is recorded as “did not prevent skin inflammation”. Besides, the “small intestinal crypt inflammation” value in the data set with small intestinal crypts is listed as “minimal small intestinal crypt inflammation”. In addition, in [6] (FIG. 6-E), the “spleen cell division in response to B6C3F1 stimulation” value is on record as “strongly responded to B6C3F1 stimulation”. In [6] (FIG. 6-F), the “spleen cell division in response to Balb/c stimulation” value is “comparable to their response to Balb/c”. Besides, the “blood vessel spasm and constriction after subarachnoid bleeding” value in [7] was “effective in reversing blood vessel spasm and constriction”. The results for the “Survival Rate (95% CI), 90 day” value in the data set on C3B6 mice (GVHD model) [8] and in the data set with C3B6 mice (GVHD model) [8] (listed as Fasudil ®) were 73% and 73% (55%-88%), respectively.

As for `CCn1c(-c2nonc2N)nc2cnc(Oc3cccc(NC(=O)c4ccc(OCCN5CCOCC5)cc4)c3)cc21` [GSK 269962], the vasorelaxation result with preconstricted rat aorta is reported as “induce vasorelaxation”. Further, the blood pressure result in data set [9] was “lower blood pressure”.

For `Cc1cncc2cccc(S(=O)(=O)N3CCCN(C(=O)CN)C[C@@H]3C)c12` [Glycyl-H-1152 dihydrochloride], the IC50 at ROCK II [10] was 0.0118 µM.

On to `Cl.O=c1[nH]ccc2c(S(=O)(=O)N3CCCNCC3)cccc12` [HA 1100 hydrochloride], for which the neutrophil migration entry in the data set with neutrophil migration is reported as “inhibit neutrophil migration”. Moreover, in data set [11], the vasodilatory effects result is listed as “potent vasodilatory effects”.

On to `c1ccc2c(-c3ccncc3)c[nH]c2c1` [Rockout®], for which, in the data set with ROCK (ATP-competitive, reversible), the IC50 was 25 µM. For the same molecule, in the data set with ROCK, the “effect on the activation of ROCK” value was “does not inhibit the activation of ROCK”.

Regarding maraviroc, in [12], the “IT GVHD and acute (within 100 days) death” value is “prevented IT GVHD and acute (within 100 days) death; also recorded: no acute deaths”.
